In publication PMC8388760, “Novel Bifunctional Acylase from Actinoplanes utahensis: A Versatile Enzyme to Synthesize Antimicrobial Compounds and Use in Quorum Quenching Processes” (Antibiotics, 2021):

Test system: T1, AuAHLA
T1 construct: gene ahla; full ORF of 808 residues expressed untagged in Rhodococcus sp; T104, secreted; signal peptide of 34-35 aa removed
Assay: hydrolysis, o-phthalaldehyde fluorometric assay of released primary amine
Type: biochemical, Actinoplanes utahensis
Settings: 0.2 M potassium phosphate pH 8.0, 45 °C
Description: hydrolysis, o-phthalaldehyde fluorometric assay of released primary amine on AuAHLA

Compound | Km (20% (v/v) DMSO) | Km
CCCCCC(=O)N[C@H]1CCOC1=O [C6-HSL, N-hexanoyl-L-homoserine lactone] | 2250 ± 500 µM | –
CCCCCCCC(=O)N[C@H]1CCOC1=O [C8-HSL, N-octanoyl-L-homoserine lactone] | 860 ± 150 µM | –
CCCCCCCCCC(=O)N[C@H]1CCOC1=O [C10-HSL, N-decanoyl-L-homoserine lactone] | 84 ± 21 µM | –
CC1(C)S[C@@H]2[C@H](NC(=O)Cc3ccccc3)C(=O)N2[C@H]1C(=O)O [Penicillin G] | – | 1210 ± 300 µM
CCCCCCCC(=O)N[C@@H]1C(=O)N2[C@@H]1SC(C)(C)[C@@H]2C(=O)O [Penicillin K] | – | 675 ± 190 µM
CC1(C)S[C@@H]2[C@H](NC(=O)COc3ccccc3)C(=O)N2[C@H]1C(=O)O [Penicillin V] | – | 472 ± 50 µM
CCCCCC(=O)N[C@@H]1C(=O)N2[C@@H]1SC(C)(C)[C@@H]2C(=O)O [Penicillin dihidroF] | – | 199 ± 20 µM

Second part, led by results:

Km (20% (v/v) DMSO) | Compound | Km
1040 ± 420 µM | CCCCCC(=O)CC(=O)N[C@H]1CCOC1=O [3-oxo-C8-HSL, N-(3-oxooctanoyl)-L-homoserine lactone] | –
238 ± 86 µM | CCCCCCCC(=O)CC(=O)N[C@H]1CCOC1=O [3-oxo-C10-HSL, N-(3-oxodecanoyl)-L-homoserine lactone] | –
92 ± 21 µM | CCCCCCCCCC(=O)CC(=O)N[C@H]1CCOC1=O [3-oxo-C12-HSL, N-(3-oxododecanoyl)-L-homoserine lactone] | –
8 ± 2 µM | CCCCCCCCCCCC(=O)N[C@H]1CCOC1=O [C12-HSL, N-dodecanoyl-L-homoserine lactone] | –
